In the test the target is T1, human 4lg B7-H3 (Homo sapiens, UniProt Q5ZPR3).
T1 sequence (Q5ZPR3 29-534): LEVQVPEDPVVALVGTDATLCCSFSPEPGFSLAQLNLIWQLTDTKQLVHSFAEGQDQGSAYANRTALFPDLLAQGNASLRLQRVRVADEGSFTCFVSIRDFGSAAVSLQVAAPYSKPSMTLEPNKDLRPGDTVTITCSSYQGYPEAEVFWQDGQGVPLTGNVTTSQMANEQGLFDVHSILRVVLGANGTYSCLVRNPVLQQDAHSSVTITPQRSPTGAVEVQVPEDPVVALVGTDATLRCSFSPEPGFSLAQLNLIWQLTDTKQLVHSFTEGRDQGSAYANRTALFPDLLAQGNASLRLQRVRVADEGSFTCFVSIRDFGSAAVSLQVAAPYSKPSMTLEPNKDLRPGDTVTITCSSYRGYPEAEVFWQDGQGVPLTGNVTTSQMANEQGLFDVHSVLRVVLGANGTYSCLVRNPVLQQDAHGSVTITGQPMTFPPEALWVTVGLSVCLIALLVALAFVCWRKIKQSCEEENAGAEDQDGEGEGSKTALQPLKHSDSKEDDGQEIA
As to the kind of experiment: Affinity determination by surface plasmon resonance (SPR) to 4Ig B7-H3. Particulars: SPR KD—37° C., 4Ig B7-H3; 37° C. flow cell temperature.

The structures appear in SMILES notation. Starred links: 1 amine or outer side, 2 acyl side, 3 side chain; linkers in the order of their positions; H or OH if unused. Positions of bridges follow the written chain, without caps; N, C: chain ends. Non-standard residues stand in square brackets, D forms with d. Residues, ends and D or L forms follow the SMILES beside them. Groups on a side chain read outwards from the residue. *: point of attachment. Ala(piperidin-4-yl) = O=C([C@H](CC1CCN([*:3])CC1)N[*:1])[*:2]; DOTA = O=C(O)CN1CCN(CC(=O)O)CCN(CC(=O)*)CCN(CC(=O)O)CC1; Trp(5-F) = N[C@@H](Cc1c[nH]c2ccc(F)cc12)C(=O)O; γGlu = O=C(O)[C@H](CCC(=O)[*:2])N[*:1]; 1Nal = N[C@@H](Cc1cccc2ccccc12)C(=O)O; Ala(4-THP) = N[C@@H](CC1CCOCC1)C(=O)O; Val(3-OH) = CC(C)(O)[C@H](N)C(=O)O; mTyr = N[C@@H](Cc1cccc(O)c1)C(=O)O; Tle = CC(C)(C)[C@H](N)C(=O)O; hLeu = CC(C)CC[C@H](N)C(=O)O; Aze = O=C(O)[C@@H]1CCN1 A value given as a limit tells only on which side of the number the result lay.

In general, Kd refers to the free concentration of one partner at which half of the binding sites on the other are occupied at equilibrium, for simple one-to-one binding. Turning to `CC(=O)N[C@@H](CCC(C)C)C(=O)N[C@@H](Cc1ccc(O)cc1)C(=O)N[C@H]1CSSC[C@@H](C(=O)N[C@@H](Cc2c[nH]c3ccc(F)cc23)C(=O)N[C@@H](Cc2ccccc2)C(=O)N[C@H](C(=O)N[C@H](CCCCNC(=O)CN2CCN(CC(=O)O)CCN(CC(=O)O)CCN(CC(=O)O)CC2)C(=O)O)C(C)(C)O)NC(=O)[C@H](Cc2ccc(O)cc2)NC(=O)[C@H](C(C)C)NC(=O)[C@H](CC(=O)O)NC(=O)[C@H](CC2CCOCC2)NC(=O)[C@@H]2CCN2C(=O)CNC(=O)[C@H](C(C)(C)C)NC1=O` [compound 375, Ac-hLeu-Y-C-Tbg-G-Aze-ThpA-D-V-Y-C-5FW-F-hydroxyVal-dLys(DOTA)-COOH] (Ac-[hLeu]YC[Tle]G[Aze][Ala(4-THP)]DVYC[Trp(5-F)]F[Val(3-OH)][dK](DOTA)-OH; disulfide 3-11), the Kd is 1 to 10 nM.

Compound `CC(=O)N[C@@H](CCC(C)C)C(=O)N[C@@H](Cc1ccc(O)cc1)C(=O)N[C@H]1CSSC[C@@H](C(=O)N[C@@H](Cc2c[nH]c3ccc(F)cc23)C(=O)N[C@@H](Cc2ccccc2)C(=O)N[C@H](C(=O)N[C@H](CCC(=O)O)C(N)=O)C(C)(C)O)NC(=O)[C@H](Cc2ccc(O)cc2)NC(=O)[C@H](C(C)C)NC(=O)[C@H](CC(=O)O)NC(=O)[C@H](CC2CCN(C(=O)CC[C@H](NC(=O)CN3CCN(CC(=O)O)CCN(CC(=O)O)CCN(CC(=O)O)CC3)C(=O)O)CC2)NC(=O)[C@H](CC2CCNCC2)NC(=O)CNC(=O)[C@H](C(C)(C)C)NC1=O` [compound 459, Ac-hLeu-Y-C-Tbg-G-PipAla-Pip(gE-DOTA)Ala-D-V-Y-C-5FW-F-hydroxyVal-dGlu-CONH2] (Ac-[hLeu]YC[Tle]G[Ala(piperidin-4-yl)][Ala(piperidin-4-yl)]([γGlu-DOTA])DVYC[Trp(5-F)]F[Val(3-OH)][dE]-NH2; disulfide 3-11) gave a Kd of under 1 nM.

In turn, `CC(=O)N[C@@H](CCC(C)C)C(=O)N[C@@H](Cc1ccc(O)cc1)C(=O)N[C@H]1CSSC[C@@H](C(=O)N[C@@H](Cc2c[nH]c3ccc(F)cc23)C(=O)N[C@@H](Cc2cccc(O)c2)C(=O)N[C@H](C(=O)N[C@H](CCCCNC(=O)CN2CCN(CC(=O)O)CCN(CC(=O)O)CCN(CC(=O)O)CC2)C(=O)O)C(C)(C)O)NC(=O)[C@H](Cc2ccc(O)cc2)NC(=O)[C@H](C(C)C)NC(=O)[C@H](CC(=O)O)NC(=O)[C@H](CC2CCOCC2)NC(=O)[C@H](CC2CCNCC2)NC(=O)CNC(=O)[C@H](C(C)(C)C)NC1=O` [compound 431, Ac-hLeu-Y-C-Tbg-G-PipAla-ThpA-D-V-Y-C-5FW-3OHPhe-hydroxyVal-dLys(DOTA)-COOH] (Ac-[hLeu]YC[Tle]G[Ala(piperidin-4-yl)][Ala(4-THP)]DVYC[Trp(5-F)][mTyr][Val(3-OH)][dK](DOTA)-OH; disulfide 3-11) had a dissociation constant Kd of 1 to 10 nM.

`CC(=O)N[C@@H](CCC(C)C)C(=O)N[C@@H](Cc1ccc(O)cc1)C(=O)N[C@H]1CSSC[C@@H](C(=O)N[C@@H](Cc2cccc3ccccc23)C(=O)N[C@@H](Cc2ccccc2)C(=O)N[C@H](C(=O)N[C@H](CCCCNC(=O)CC[C@H](NC(=O)CN2CCN(CC(=O)O)CCN(CC(=O)O)CCN(CC(=O)O)CC2)C(=O)O)C(=O)O)C(C)(C)O)NC(=O)[C@H](Cc2ccc(O)cc2)NC(=O)[C@H](C(C)C)NC(=O)[C@H](CC(=O)O)NC(=O)[C@H](CC2CCOCC2)NC(=O)[C@H](CC2CCNCC2)NC(=O)CNC(=O)[C@H](C(C)(C)C)NC1=O` [compound 441, Ac-hLeu-Y-C-Tbg-G-PipAla-ThpA-D-V-Y-C-1Nal-F-hydroxyVal-dLys(gGlu-DOTA)-COOH] (Ac-[hLeu]YC[Tle]G[Ala(piperidin-4-yl)][Ala(4-THP)]DVYC[1Nal]F[Val(3-OH)][dK]([γGlu-DOTA])-OH; disulfide 3-11) had a Kd of under 1 nM.

As for `CC(=O)N[C@@H](CCC(C)C)C(=O)N[C@@H](Cc1ccc(O)cc1)C(=O)N[C@H]1CSSC[C@@H](C(=O)N[C@@H](Cc2c[nH]c3ccc(F)cc23)C(=O)N[C@@H](Cc2ccccc2)C(=O)N[C@H](C(=O)N[C@H](CCCCNC(=O)CN2CCN(CC(=O)O)CCN(CC(=O)O)CCN(CC(=O)O)CC2)C(=O)O)C(C)(C)O)NC(=O)[C@H](Cc2ccc(O)cc2)NC(=O)[C@H](C(C)C)NC(=O)[C@H](CC(=O)O)NC(=O)[C@H](CC2CCOCC2)NC(=O)[C@@H]2CCCN2C(=O)CNC(=O)[C@H](C(C)(C)C)NC1=O` [compound 349, Ac-hLeu-Y-C-Tbg-G-Pro-ThpA-D-V-Y-C-5FW-F-hydroxyVal-dLys(DOTA)-COOH] (Ac-[hLeu]YC[Tle]GP[Ala(4-THP)]DVYC[Trp(5-F)]F[Val(3-OH)][dK](DOTA)-OH; disulfide 3-11), the Kd was in the range of 10 to 100 nM.

Source of the values: patent publication US20250296959A1, “B7-H3 TARGETING PEPTIDES AND CONSTRUCTS THEREOF” (Mariana Oncology Inc., priority 2024, published 2025).
